Results on twelve compounds are retold here after patent EP2027081B1, “THERAPEUTIC PROSTAGLANDIN COMPOUNDS FOR THE TREATMENT OF GLAUCOMA” (ALLERGAN, INC., priority 2006, dated 2007).

Experiment [1] concerns the target T1, human EP2 receptors (Homo sapiens, UniProt P43116).
T1 construct: expressed in transfected cells; host or cells: HEK 293
The experiment is described as follows: Competition binding, [3H]PGE2, HEK 293 cells stably expressing human EP2 receptors. How it is done: Competition binding experiments were performed in a medium containing Hank's balanced salt solution, Hepes 20 mM, pH 7.3, membranes (∼60 µg protein) or 2x10^5 cells from HEK 293 cells stably expressing human EP2 receptors, [^3H]PGE2 (10 nM) and various concentrations of test compounds in a total volume of 300 µl. Reaction mixtures were incubated at 23 °C for 60 min, and were filtered over Whatman GF/B filters under vacuum. Filters were washed three times with 5 ml ice-cold buffer containing 50 mM Tris/HCl (pH 7.3). Non-specific binding was estimated in the presence of excess unlabeled PGE2 (10 µM). Binding data fitted to the binding model for a single class of binding sites, using nonlinear regression analysis.
(§1) HEK-293 cells stably expressing the human or feline FP receptor, or EP1, EP2, or EP4 receptors were washed with TME buffer, scraped from the bottom of the flasks, and homogenized for 30 sec using a Brinkman PT 10/35 polytron. TME buffer was added to achieve a final 40 ml volume in the centrifuge tubes (the composition of TME is 100 mM TRIS base, 20 mM MgCl2, […]; 10N HCl is added to achieve a pH of 7.4).
(§2) The cell homogenate was centrifuged at 19000 r.p.m. for 20 min at 4° C using a Beckman Ti-60 rotor. The resultant pellet was resuspended in TME buffer to give a final 1 mg/ml protein concentration, as determined by Biorad assay. Radioligand binding competition assays vs. [^3H-]17 -phenyl PGF2α (5 nM) were performed in a 100µl volume for 60 min. Binding reactions were started by adding plasma membrane fraction. The reaction was terminated by the addition of 4 ml ice-cold TRIS-HCl buffer and rapid filtration through glass fiber GF/B filters using a Brandel cell harvester. The filters were washed 3 times with ice-cold buffer and oven dried for one hour.
(§3) [^3H-] PGE2 (specific activity 180 Ci mmol) was used as the radioligand for EP receptors. [^3H] 17-phenyl PGF2α was employed for FP receptor binding studies. Binding studies employing EP1, EP2, EP4 and FP receptors were performed in duplicate in at least three separate experiments. A 200µl assay volume was used. Incubations were for 60 min at 25°C and were terminated by the addition of 4 ml of ice-cold 50 mM TRIS-HCl, followed by rapid filtration through Whatman GF/B filters and three additional 4 ml washes in a cell harvester (Brandel). Competition studies were performed using a final concentration of 5 nM [^3H]-PGE2, or 5 nM [^3H] 17-phenyl PGF2α and non-specific binding determined with 10^-5M of unlabeled PGE2, or 17-phenyl PGF2α, according to receptor subtype studied.

In experiment [2] the target is T2, hEP2/Gqs5 (Homo sapiens, UniProt P43116).
T2 construct: expressed in transfected cells; host or cells: HEK-293(EBNA)
The experiment is described as follows: FLIPR calcium signal study, HEK-293(EBNA) cells. The class given is cell-based. How it is done: (§4) Cells were seeded at a density of 5x10^4 cells per well in Biocoat® Poly-D-lysine-coated black-wall, clear-bottom 96-well plates (Becton-Dickinson) and allowed to attach overnight in an incubator at 37 °C. Cells were then washed two times with HBSS-HEPES buffer (Hanks Balanced Salt Solution without bicarbonate and phenol red, 20 mM HEPES, pH 7.4) using a Denley Cellwash plate washer (Labsystems). After 45 minutes of dye-loading in the dark, using the calcium-sensitive dye Fluo-4 AM at a final concentration of 2 µM, plates were washed four times with HBSS-HEPES buffer to remove excess dye leaving 100 µl in each well. Plates were re-equilibrated to 37 °C for a few minutes.
Cells were excited with an Argon laser at 488 nm, and emission was measured through a 510-570 nm bandwidth emission filter (FLIPR™, Molecular Devices, Sunnyvale, CA). […] The peak increase in fluorescence intensity was recorded for each well. […] The peak fluorescence change in each drug-containing well was then expressed relative to the controls.
Compounds were tested in a high-throughput (HTS) or concentration-response (CoRe) format. In the HTS format, forty-four compounds per plate were examined in duplicates at a concentration of 10^-5 M. To generate concentration-response curves, four compounds per plate were tested in duplicates in a concentration range between 10^-5 and 10^-11 M. The duplicate values were averaged.

The target in experiment [3] is T3, hEP3A/Gqi5 (Homo sapiens, UniProt P43115).
T3 construct: expressed in transfected cells; host or cells: HEK-293(EBNA)
T3 sequence (P43115 1-390): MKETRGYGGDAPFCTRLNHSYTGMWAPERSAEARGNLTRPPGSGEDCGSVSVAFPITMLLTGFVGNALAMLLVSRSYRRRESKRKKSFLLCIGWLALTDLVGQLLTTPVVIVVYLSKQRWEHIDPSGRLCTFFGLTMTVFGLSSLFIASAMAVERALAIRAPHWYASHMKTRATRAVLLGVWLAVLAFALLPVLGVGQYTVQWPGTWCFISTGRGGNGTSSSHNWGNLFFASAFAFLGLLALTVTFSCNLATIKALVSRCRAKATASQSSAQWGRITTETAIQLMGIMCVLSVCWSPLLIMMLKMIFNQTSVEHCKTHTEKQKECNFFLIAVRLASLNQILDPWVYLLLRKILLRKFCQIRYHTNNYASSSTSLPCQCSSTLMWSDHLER
The experiment can be described thus: FLIPR calcium signal study, HEK-293(EBNA) cells. It is filed as cell-based. The settings on record: Table 3; read-out: FUNCTIONAL (Ca2+, EC50, nM) HEP3A. How it is done: (§5) HEK-293(EBNA) cells, stably expressing one type or subtype of recombinant human prostaglandin receptors (prostaglandin receptors expressed: hDP/Gqs5; hEP1; hEP2/Gqs5; hEP3A/Gqi5; hEP4/Gqs5; hFP; hIP; hTP), were cultured in 100 mm culture dishes in high-glucose DMEM medium containing 10% fetal bovine serum, 2 mM I-glutamine, 250 µg/ml geneticin (G418) and 200 µg/ml hygromycin B as selection markers, and 100 units/ml penicillin G, 100 µg/ml streptomycin and 0.25 µg/ml amphotericin B.
as §4
(§6) Cells were excited with an Argon laser at 488 nm, and emission was measured through a 510-570 nm bandwidth emission filter (FLIPR™, Molecular Devices, Sunnyvale, CA). Drug solution was added in a 50 µl volume to each well to give the desired final concentration. The peak increase in fluorescence intensity was recorded for each well. On each plate, four wells each served as negative (HBSS-HEPES buffer) and positive controls (standard agonists: BW245C (hDP); PGE2 (hEP1; hEP2/Gqs5; hEP3A/Gqi5; hEP4/Gqs5); PGF2α (hFP); carbacyclin (hIP); U-46619 (hTP), depending on receptor). The peak fluorescence change in each drug-containing well was then expressed relative to the controls.
(§7) Compounds were tested in a high-throughput (HTS) or concentration-response (CoRe) format. In the HTS format, forty-four compounds per plate were examined in duplicates at a concentration of 10^-5 M. To generate concentration-response curves, four compounds per plate were tested in duplicates in a concentration range between 10^-5 and 10^-11 M. The duplicate values were averaged. In either, HTS or CoRe format each compound was tested on at least 3 separate plates using cells from different passages to give an n ≥ 3.

Experiment [4] addresses T4, EP4 receptors (Homo sapiens, UniProt P35408).
T4 construct: expressed in transfected cells; host or cells: HEK-293
The experiment is described as follows: Radioligand binding, EP4 receptor. To be noted: Table 3; read-out: BINDING (Ki, nM) HEP4. How it is done: as §1, §2, §3

Experiment [5] deals with T5, hTP (Homo sapiens, UniProt P21731).
T5 construct: expressed in transfected cells; host or cells: HEK-293(EBNA)
T5 sequence (P21731 1-343): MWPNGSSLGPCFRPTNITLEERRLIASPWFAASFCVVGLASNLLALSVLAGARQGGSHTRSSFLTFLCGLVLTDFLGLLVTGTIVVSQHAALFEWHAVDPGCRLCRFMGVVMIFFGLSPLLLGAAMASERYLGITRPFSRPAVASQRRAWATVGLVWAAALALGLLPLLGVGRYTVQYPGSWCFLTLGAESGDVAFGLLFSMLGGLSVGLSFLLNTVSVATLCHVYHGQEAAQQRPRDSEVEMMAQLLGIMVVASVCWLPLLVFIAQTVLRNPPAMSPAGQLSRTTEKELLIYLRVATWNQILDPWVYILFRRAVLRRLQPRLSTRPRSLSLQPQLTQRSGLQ
The experiment is described as follows: FLIPR calcium signal study, HEK-293(EBNA) cells. The class given is cell-based. The settings on record: Table 1; NA means not active; read-out: FUNCTIONAL (Ca2+, EC50, nM) HTP. The method, then:
as §5, §4, §6, §7

The mark [6] stands for this setting: Table 2, unit inferred, read-out: BINDING HEP2.
Setting [7] is: Table 2, unit inferred, read-out: FUNCTIONAL HEP2.
The mark [8] stands for this setting: Table 1, Ca2+ signal, NA means not active, read-out: FUNCTIONAL (Ca2+, EC50, nM) HEP 2.

Like-named read-outs stand apart in the source and are kept apart here.

T1 sequence (P43116 whole entry): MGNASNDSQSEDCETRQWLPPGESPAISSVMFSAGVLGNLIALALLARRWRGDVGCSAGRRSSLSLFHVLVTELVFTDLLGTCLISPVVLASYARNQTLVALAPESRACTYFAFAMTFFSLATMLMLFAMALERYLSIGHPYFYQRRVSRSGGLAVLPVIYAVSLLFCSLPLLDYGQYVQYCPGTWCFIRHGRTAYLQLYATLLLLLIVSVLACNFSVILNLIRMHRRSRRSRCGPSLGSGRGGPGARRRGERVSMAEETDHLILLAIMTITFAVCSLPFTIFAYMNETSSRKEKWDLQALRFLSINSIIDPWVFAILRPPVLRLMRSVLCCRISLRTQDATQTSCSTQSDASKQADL
T2 sequence (P43116 whole entry): as above
T4 sequence (P35408 whole entry): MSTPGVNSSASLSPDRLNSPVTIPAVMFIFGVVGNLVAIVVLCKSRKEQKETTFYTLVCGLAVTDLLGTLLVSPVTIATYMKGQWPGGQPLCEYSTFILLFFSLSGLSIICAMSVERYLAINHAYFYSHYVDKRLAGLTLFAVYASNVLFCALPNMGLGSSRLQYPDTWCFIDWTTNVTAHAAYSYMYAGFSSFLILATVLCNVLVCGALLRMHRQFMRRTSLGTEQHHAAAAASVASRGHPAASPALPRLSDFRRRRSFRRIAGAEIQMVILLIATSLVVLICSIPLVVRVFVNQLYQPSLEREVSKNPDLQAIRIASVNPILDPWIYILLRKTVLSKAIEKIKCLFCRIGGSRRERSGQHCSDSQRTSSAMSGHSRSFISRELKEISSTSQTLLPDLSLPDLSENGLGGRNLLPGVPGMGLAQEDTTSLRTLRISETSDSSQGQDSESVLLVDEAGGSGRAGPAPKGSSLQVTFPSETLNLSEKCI

In the case of `CCCCCC(O)c1ccc([C@H]2CCC(=O)[C@@H]2C/C=C\CCCC(=O)OC)cc1` (stereo partly shown) [drawing 96], the Ki in experiment [1] (setting [6]) amounted to 15000 nM. Further, the EC50 in experiment [2] (setting [7]) stood at 15000 nM. For the compound `CCCCC(O)c1ccc([C@H]2CCC(=O)[C@@H]2CCCCCCC(=O)O)cc1` (stereo partly shown), the Ki in experiment [1] (setting [6]) was 1400 nM. For the same compound, in experiment [2], the EC50 came out at 1410 nM. With `CCCCCC(O)c1ccc([C@H]2CCC(=O)[C@@H]2CCCCCCC(=O)O)s1` (stereo partly shown), the Ki in experiment [1] (setting [6]) came out at 600 nM. The EC50 in experiment [2] worked out at 769 nM. With `CCCCCC(O)c1ccc([C@H]2CC[C@@H](F)[C@@H]2CCCCCCC(=O)O)cc1` (stereo partly shown), in experiment [1] (setting [6]), the Ki was 600 nM. Also, in experiment [2] (setting [7]), the EC50 came out at 15000 nM.

On to `CCCCCC(O)c1ccc([C@H]2CCC(=O)[C@@H]2CCCCCCC(=O)OC)cc1` (stereo partly shown), for which the Ki in experiment [1] (Table 3, read-out: BINDING (Ki, nM) HEP2) came out at 4680 nM; in experiment [4], 15000 nM. In addition, the EC50 in experiment [3] is 3090 nM; in experiment [2] (Table 3, read-out: FUNCTIONAL (Ca2+, EC50, nM) HEP2), 2160 nM.

On to `CCCCCC(O)c1ccc([C@H]2CC[C@@H](Cl)[C@@H]2CCCCCCC(=O)O)cc1` (stereo partly shown), for which, in experiment [1] (setting [6]), the Ki turned out to be 1900 nM. Moreover, the EC50 in experiment [2] (setting [7]) turned out to be 15000 nM. On to `COC(=O)CCC/C=C\C[C@H]1C(=O)CC[C@@H]1c1ccc(C(O)C2CCCCC2)cc1` (stereo partly shown) [Entry 10], for which the EC50 in experiment [2] (setting [8]) was greater than 10000 nM. For the compound `CC(C)(C)c1ccc([C@H]2CCC(=O)[C@@H]2C/C=C\CCCC(=O)O)cc1` [Entry 8], the EC50 in experiment [2] (setting [8]) worked out at 1050 nM. Regarding `CCCC1(C(O)c2cccc([C@H]3CCC(=O)[C@@H]3C/C=C\CCCC(=O)O)c2)CCC1` (stereo partly shown) [Entry 2], the EC50 in experiment [2] (setting [8]) was 2660 nM. With `CCCCCC(O)c1ccc([C@H]2CCC(=O)[C@@H]2CCCCCCC(=O)OC)s1` (stereo partly shown), in experiment [1] (setting [6]), the Ki is 7100 nM. Besides, in experiment [2], the EC50 turned out to be 7100 nM. For the compound `O=C(O)CCCCCC[C@H]1C(=O)CC[C@@H]1c1ccc(C2(O)CCC2)cc1` [Entry 17], the EC50 in experiment [2] (setting [8]) is greater than 10000 nM. Take `COC(=O)CCCCCC[C@H]1C(=O)CC[C@@H]1c1ccc(C(O)C2CCCCC2)cc1` (stereo partly shown) [Entry 12]: the EC50 in experiment [5] and in experiment [2] (setting [8]) was greater than 10000 nM throughout.
